Measurements from PubChem BioAssay (NCI).
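In this assay, cells in 96-well plates receive the compound at five concentrations for 48 hours. Endpoints are linearly interpolated between the surrounding concentrations. TGI: total growth inhibition.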

Assays:
Assay in all cases: NCI anticancer screen, dose series, 48 h
UACC-257 melanoma = test system: UACC-257 melanoma
K-562 leukemia = test system: K-562 leukemia
CCRF-CEM leukemia = test system: CCRF-CEM leukemia
COLO 205 colon = test system: COLO 205 colon
MDA-MB-231 breast = test system: MDA-MB-231 breast
SF-268 CNS = test system: SF-268 CNS
PC-3 prostate = test system: PC-3 prostate
NCI-H23 lung = test system: NCI-H23 lung
KM12 colon = test system: KM12 colon
RXF 393 renal = test system: RXF 393 renal
MDA-N = test system: MDA-N
T-47D breast = test system: T-47D breast
HOP-62 NSCLC = test system: HOP-62 NSCLC
ACHN renal = test system: ACHN renal
SK-MEL-5 melanoma = test system: SK-MEL-5 melanoma
OVCAR-3 ovarian = test system: OVCAR-3 ovarian
U251 CNS = test system: U251 CNS
A498 renal = test system: A498 renal
UO-31 renal = test system: UO-31 renal
IGROV1 ovarian = test system: IGROV1 ovarian
MALME-3M melanoma = test system: MALME-3M melanoma
HL-60(TB) leukemia = test system: HL-60(TB) leukemia
EKVX NSCLC = test system: EKVX NSCLC
NCI-H226 lung = test system: NCI-H226 lung
BT-549 breast = test system: BT-549 breast
MDA-MB-435 = test system: MDA-MB-435
A549 NSCLC = test system: A549 NSCLC
HOP-92 NSCLC = test system: HOP-92 NSCLC
MCF7 breast = test system: MCF7 breast
MOLT-4 leukemia = test system: MOLT-4 leukemia
HS 578T breast = test system: HS 578T breast
SK-MEL-2 melanoma = test system: SK-MEL-2 melanoma
SN12C renal = test system: SN12C renal
OVCAR-4 ovarian = test system: OVCAR-4 ovarian
M14 melanoma = test system: M14 melanoma
CAKI-1 renal = test system: CAKI-1 renal
NCI/ADR-RES ovarian = test system: NCI/ADR-RES ovarian
SW-620 colon = test system: SW-620 colon
UACC-62 melanoma = test system: UACC-62 melanoma
SK-OV-3 ovarian = test system: SK-OV-3 ovarian
OVCAR-8 ovarian = test system: OVCAR-8 ovarian
TK-10 renal = test system: TK-10 renal
SNB-19 CNS = test system: SNB-19 CNS
HCT-15 colon = test system: HCT-15 colon
NCI-H460 lung = test system: NCI-H460 lung
SF-295 CNS = test system: SF-295 CNS
HT29 colon = test system: HT29 colon
LOX IMVI melanoma = test system: LOX IMVI melanoma
HCT-116 colon = test system: HCT-116 colon
OVCAR-5 ovarian = test system: OVCAR-5 ovarian
DU-145 prostate = test system: DU-145 prostate
SK-MEL-28 melanoma = test system: SK-MEL-28 melanoma
786-0 renal = test system: 786-0 renal
NCI-H522 lung = test system: NCI-H522 lung
SNB-75 CNS = test system: SNB-75 CNS
HCC-2998 colon = test system: HCC-2998 colon
RPMI-8226 leukemia = test system: RPMI-8226 leukemia
SF-539 CNS = test system: SF-539 CNS

## C1CNOCCCONCCCNOCCCONC1
UACC-257 melanoma
  TGI: > 100 µM
K-562 leukemia
  TGI: > 100 µM
CCRF-CEM leukemia
  TGI: > 100 µM
COLO 205 colon
  TGI: > 100 µM
MDA-MB-231 breast
  TGI: 79.6 µM
SF-268 CNS
  TGI: > 100 µM
PC-3 prostate
  TGI: 86 µM
NCI-H23 lung
  TGI: > 100 µM
KM12 colon
  TGI: > 100 µM
RXF 393 renal
  TGI: 64.2 µM
MDA-N
  TGI: > 100 µM
T-47D breast
  TGI: 44.4 µM
HOP-62 NSCLC
  TGI: > 100 µM
ACHN renal
  TGI: > 100 µM
SK-MEL-5 melanoma
  TGI: > 100 µM
OVCAR-3 ovarian
  TGI: > 100 µM
U251 CNS
  TGI: > 100 µM
A498 renal
  TGI: > 100 µM
UO-31 renal
  TGI: > 100 µM
IGROV1 ovarian
  TGI: > 100 µM
MALME-3M melanoma
  TGI: 99.2 µM
HL-60(TB) leukemia
  TGI: > 100 µM
EKVX NSCLC
  TGI: > 100 µM
NCI-H226 lung
  TGI: > 100 µM
BT-549 breast
  TGI: > 100 µM
MDA-MB-435
  TGI: > 100 µM
A549 NSCLC
  TGI: > 100 µM
HOP-92 NSCLC
  TGI: 82.1 µM
MCF7 breast
  TGI: > 100 µM
MOLT-4 leukemia
  TGI: > 100 µM
HS 578T breast
  TGI: > 100 µM
SK-MEL-2 melanoma
  TGI: > 100 µM
SN12C renal
  TGI: > 100 µM
OVCAR-4 ovarian
  TGI: > 100 µM
M14 melanoma
  TGI: > 100 µM
CAKI-1 renal
  TGI: > 100 µM
NCI/ADR-RES ovarian
  TGI: > 100 µM
SW-620 colon
  TGI: > 100 µM
UACC-62 melanoma
  TGI: > 100 µM
SK-OV-3 ovarian
  TGI: > 100 µM
OVCAR-8 ovarian
  TGI: > 100 µM
TK-10 renal
  TGI: 84.5 µM
SNB-19 CNS
  TGI: > 100 µM
HCT-15 colon
  TGI: > 100 µM
NCI-H460 lung
  TGI: 94 µM
SF-295 CNS
  TGI: > 100 µM
HT29 colon
  TGI: > 100 µM
LOX IMVI melanoma
  TGI: > 100 µM
HCT-116 colon
  TGI: > 100 µM
OVCAR-5 ovarian
  TGI: > 100 µM
DU-145 prostate
  TGI: > 100 µM
SK-MEL-28 melanoma
  TGI: > 100 µM
786-0 renal
  TGI: > 100 µM
NCI-H522 lung
  TGI: > 100 µM
SNB-75 CNS
  TGI: > 100 µM

## Cn1c(=O)c2[nH]c(N=O)nc2n(C)c1=O
UACC-257 melanoma
  TGI: > 100 µM
K-562 leukemia
  TGI: > 100 µM
COLO 205 colon
  TGI: > 100 µM
MDA-MB-231 breast
  TGI: > 100 µM
SF-268 CNS
  TGI: > 100 µM
PC-3 prostate
  TGI: > 100 µM
HCC-2998 colon
  TGI: > 100 µM
RPMI-8226 leukemia
  TGI: > 100 µM
NCI-H23 lung
  TGI: > 100 µM
KM12 colon
  TGI: > 100 µM
RXF 393 renal
  TGI: > 100 µM
MDA-N
  TGI: > 100 µM
T-47D breast
  TGI: > 100 µM
HOP-62 NSCLC
  TGI: > 100 µM
OVCAR-3 ovarian
  TGI: > 100 µM
U251 CNS
  TGI: > 100 µM
SF-539 CNS
  TGI: > 100 µM
A498 renal
  TGI: > 100 µM
UO-31 renal
  TGI: > 100 µM
IGROV1 ovarian
  TGI: > 100 µM
MALME-3M melanoma
  TGI: > 100 µM
HL-60(TB) leukemia
  TGI: > 100 µM
EKVX NSCLC
  TGI: > 100 µM
NCI-H226 lung
  TGI: > 100 µM
BT-549 breast
  TGI: > 100 µM
MDA-MB-435
  TGI: > 100 µM
A549 NSCLC
  TGI: > 100 µM
MCF7 breast
  TGI: > 100 µM
MOLT-4 leukemia
  TGI: > 100 µM
HS 578T breast
  TGI: > 100 µM
SK-MEL-2 melanoma
  TGI: > 100 µM
SN12C renal
  TGI: > 100 µM
OVCAR-4 ovarian
  TGI: > 100 µM
M14 melanoma
  TGI: > 100 µM
CAKI-1 renal
  TGI: > 100 µM
NCI/ADR-RES ovarian
  TGI: > 100 µM
SW-620 colon
  TGI: > 100 µM
UACC-62 melanoma
  TGI: > 100 µM
SK-OV-3 ovarian
  TGI: > 100 µM
OVCAR-8 ovarian
  TGI: > 100 µM
TK-10 renal
  TGI: > 100 µM
HCT-15 colon
  TGI: > 100 µM
NCI-H460 lung
  TGI: > 100 µM
SF-295 CNS
  TGI: > 100 µM
HT29 colon
  TGI: > 100 µM
LOX IMVI melanoma
  TGI: > 100 µM
HCT-116 colon
  TGI: > 100 µM
OVCAR-5 ovarian
  TGI: > 100 µM
DU-145 prostate
  TGI: > 100 µM
SK-MEL-28 melanoma
  TGI: > 100 µM
786-0 renal
  TGI: > 100 µM
NCI-H522 lung
  TGI: > 100 µM
SNB-75 CNS
  TGI: > 100 µM
